{
  "source": "patent US3979508A",
  "about": "“Compositions and methods therewith for penicillin hypersensitivity detection” (Kremers-Urban Company, priority 1975, dated 1976)",
  "key": {"[1]": {"system": "penicillin hypersensitivity (patients)", "experiment": "Skin tests for penicillin hypersensitivity: monostereoisomeric penicilloyl-poly-L-lysine vs mixture of stereoisomers (Table II)", "format": "in vivo, human", "method": "(§1) One of the uses for the conjugates of this invention is in skin testing for penicillin hypersensitivity. The conjugated compositions are prepared for skin testing by first dissolving the composition in buffered isotonic solutions, having a pH in the range from 7 to 8. For example, the conjugates prepared above may be diluted with aqueous solutions 0.15 M NaCl in 0.01 M phosphate, pH 7.6. In addition, other physiological salt solutions may be used.\n(§2) Intradermal injections may be made of the foregoing solutions with a 26 guage needle, the volume injected may be generally about 0.01 to 0.03 cc. Alternatively, the conjugate may be applied by the scratch test technique. The development of a wheal at the injection site after about 20 minutes indicates a positive reaction, and penicillin hypersensitivity.\n(§3) Penicillin hypersensitivity tests carried out with the conjugate compositions of this invention reflect the numerous advantages of penicillin hypersensitivity determinations made with such compositions. […] In Table II the distribution of skin reactions is shown by history of penicillin therapy and hypersensitivity. […] (See column 2, for example, showing the percentages of patients tested who had […] skin test.)"}, "[2]": {"system": "penicillin hypersensitivity (patients)", "experiment": "Comparison of skin tests with penicilloyl-poly-L-lysine and penicillin G (Table III)", "format": "in vivo, human", "conditions": "1163 tested", "method": "as §1, §2, §3"}, "[3]": {"conditions": "GROUP I: claimed prior history of non-sensitivity and previous penicillin treatments"}, "[4]": {"conditions": "GROUP II: claimed prior history of sensitivity and previous penicillin treatments"}, "[5]": {"conditions": "GROUP III: no prior history of sensitivity and no previous penicillin treatments"}},
  "data": [
    {"substance": "penicilloyl-poly-L-lysine [PPL]", "values": [
      {"measurement": "NEGATIVE SKIN TESTS %", "setting": "[1]; [3]", "result": 91.5, "unit": "%"},
      {"measurement": "NEGATIVE SKIN TESTS No.", "setting": "[1]; [3]", "result": 4223},
      {"measurement": "NEITHER NEGATIVE NOR POSITIVE SKIN TESTS %", "setting": "[1]; [3]", "result": 0.7, "unit": "%"},
      {"measurement": "NEITHER NEGATIVE NOR POSITIVE SKIN TESTS No.", "setting": "[1]; [3]", "result": 36},
      {"measurement": "POSITIVE SKIN TESTS %", "setting": "[1]; [3]", "result": 7.8, "unit": "%"},
      {"measurement": "POSITIVE SKIN TESTS No.", "setting": "[1]; [3]", "result": 358},
      {"measurement": "NEGATIVE SKIN TESTS %", "setting": "[1]; [4]", "result": 77.7, "unit": "%"},
      {"measurement": "NEGATIVE SKIN TESTS No.", "setting": "[1]; [4]", "result": 143},
      {"measurement": "NEITHER NEGATIVE NOR POSITIVE SKIN TESTS %", "setting": "[1]; [4]", "result": "nil"},
      {"measurement": "NEITHER NEGATIVE NOR POSITIVE SKIN TESTS No.", "setting": "[1]; [4]", "result": "nil"},
      {"measurement": "POSITIVE SKIN TESTS %", "setting": "[1]; [4]", "result": 22.3, "unit": "%"},
      {"measurement": "POSITIVE SKIN TESTS No.", "setting": "[1]; [4]", "result": 41},
      {"measurement": "NEGATIVE SKIN TESTS %", "setting": "[1]; [5]", "result": 96.5, "unit": "%"},
      {"measurement": "NEGATIVE SKIN TESTS No.", "setting": "[1]; [5]", "result": 637},
      {"measurement": "NEITHER NEGATIVE NOR POSITIVE SKIN TESTS %", "setting": "[1]; [5]", "result": 0.2, "unit": "%"},
      {"measurement": "NEITHER NEGATIVE NOR POSITIVE SKIN TESTS No.", "setting": "[1]; [5]", "result": 1},
      {"measurement": "POSITIVE SKIN TESTS %", "setting": "[1]; [5]", "result": 3.3, "unit": "%"},
      {"measurement": "POSITIVE SKIN TESTS No.", "setting": "[1]; [5]", "result": 22},
      {"measurement": "NEGATIVE SKIN TESTS %", "setting": "[1]; TOTALS, all groups", "result": 91.6, "unit": "%"},
      {"measurement": "NEGATIVE SKIN TESTS No.", "setting": "[1]; TOTALS, all groups", "result": 5003},
      {"measurement": "NEITHER NEGATIVE NOR POSITIVE SKIN TESTS %", "setting": "[1]; TOTALS, all groups", "result": 0.7, "unit": "%"},
      {"measurement": "NEITHER NEGATIVE NOR POSITIVE SKIN TESTS No.", "setting": "[1]; TOTALS, all groups", "result": 37},
      {"measurement": "POSITIVE SKIN TESTS %", "setting": "[1]; TOTALS, all groups", "result": 7.7, "unit": "%"},
      {"measurement": "POSITIVE SKIN TESTS No.", "setting": "[1]; TOTALS, all groups", "result": 421},
      {"measurement": "POSITIVE SKIN TESTS %", "setting": "[2]", "result": 17.9, "unit": "%"},
      {"measurement": "Positive Skin Tests, Number of Patients", "setting": "[2]", "result": 209}
    ]}
  ]
}
